What was measured:
Experiment in all cases: relative viability (nuclei count vs DMSO), 5 days (fraction); higher = more cells survive
[1] = compound: CC(C)(C)c1nc(-c2cccc(NS(=O)(=O)c3c(F)cccc3F)c2F)c(-c2ccnc(N)n2)s1 [Dabrafenib] + NC(=O)Nc1cc(-c2cccc(F)c2)sc1C(=O)N[C@H]1CCCNC1 [AZD7762] (partner 0.2 µM)
How it was run: (§1)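 Medians of duplicate plates are given as relative viability. That measure is the nuclei count in treated wells divided by the count in vehicle wells. Counts were taken on 4× images of lung cancer cell lines in 1536-well plates, 5 days after pin-tool dosing the day after seeding with one drug alone or a fixed anchor-drug dose plus five library-drug doses (not always all listed) in √10 steps.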

[2] = compound: NC(=O)c1ccc(N(C(N)=O)c2c(F)cccc2F)nc1-c1ccc(F)cc1F [VX-702] + CC(=O)Nc1cccc(-n2c(=O)n(C3CC3)c(=O)c3c(Nc4ccc(I)cc4F)n(C)c(=O)c(C)c32)c1 [Trametinib] (partner 0.02 µM)
How it was run: as §1

[3] = compound: NC(=O)c1ccc(N(C(N)=O)c2c(F)cccc2F)nc1-c1ccc(F)cc1F [VX-702] + Cc1cc(Nc2cc(N3CCN(C)CC3)nc(Sc3ccc(NC(=O)C4CC4)cc3)n2)n[nH]1 [Tozasertib] (partner 0.1 µM)
How it was run: as §1

[4] = compound: NC(=O)c1ccc(N(C(N)=O)c2c(F)cccc2F)nc1-c1ccc(F)cc1F [VX-702] + Cc1nc(Nc2ncc(C(=O)Nc3c(C)cccc3Cl)s2)cc(N2CCN(CCO)CC2)n1 [Dasatinib] (partner 0.075 µM)
How it was run: as §1

[5] = compound: NC(=O)c1ccc(N(C(N)=O)c2c(F)cccc2F)nc1-c1ccc(F)cc1F [VX-702] + Nc1ncn([C@H]2C[C@H](O)[C@@H](CO)O2)c(=O)n1 [Decitabine] (partner 2 µM)
How it was run: as §1

Cell Line: SW 900
- relative viability ([1]; first compound 0.009487 µM): 0.578
- relative viability ([1]; first compound 0.09487 µM): 0.845
- relative viability ([1]; first compound 0.3 µM): 0.875
- relative viability ([2]; first compound 0.02 µM): 0.775
- relative viability ([2]; first compound 0.2 µM): 0.871
- relative viability ([2]; first compound 0.6325 µM): 0.856
- relative viability ([2]; first compound 2 µM): 0.795
- relative viability ([3]; first compound 0.02 µM): 0.87
- relative viability ([3]; first compound 0.2 µM): 0.494
- relative viability ([3]; first compound 0.6325 µM): 0.621
- relative viability ([3]; first compound 2 µM): 0.636
- relative viability ([4]; first compound 0.02 µM): 0.541
- relative viability ([4]; first compound 0.2 µM): 0.664
- relative viability ([4]; first compound 0.6325 µM): 0.56
- relative viability ([4]; first compound 2 µM): 0.818
- relative viability ([5]; first compound 0.02 µM): 0.47
- relative viability ([5]; first compound 0.2 µM): 0.375
- relative viability ([5]; first compound 0.6325 µM): 0.393
- relative viability ([5]; first compound 2 µM): 0.425

From the supplement of paper PMC10307832
